Assay results from ChEMBL document CHEMBL4017545, “Small Molecule Antagonists of the Interaction between the Histone Deacetylase 6 Zinc-Finger Domain and Ubiquitin” (J Med Chem, 2017).

Experiments:
[1] = target: T1, Protein deacetylase HDAC6 (Homo sapiens, UniProt Q9UBN7); assay: Displacement of FITC-labeled RLRGG peptide from N-terminal His6-tagged HDAC6 zinc-finger ubiquitin binding domain (1109 to 1215 residues)(unknown origin) expressed in Escherichia coli BL21(DE3) after 10 mins by fluorescence polarization assay
T1 sequence (Q9UBN7 whole entry): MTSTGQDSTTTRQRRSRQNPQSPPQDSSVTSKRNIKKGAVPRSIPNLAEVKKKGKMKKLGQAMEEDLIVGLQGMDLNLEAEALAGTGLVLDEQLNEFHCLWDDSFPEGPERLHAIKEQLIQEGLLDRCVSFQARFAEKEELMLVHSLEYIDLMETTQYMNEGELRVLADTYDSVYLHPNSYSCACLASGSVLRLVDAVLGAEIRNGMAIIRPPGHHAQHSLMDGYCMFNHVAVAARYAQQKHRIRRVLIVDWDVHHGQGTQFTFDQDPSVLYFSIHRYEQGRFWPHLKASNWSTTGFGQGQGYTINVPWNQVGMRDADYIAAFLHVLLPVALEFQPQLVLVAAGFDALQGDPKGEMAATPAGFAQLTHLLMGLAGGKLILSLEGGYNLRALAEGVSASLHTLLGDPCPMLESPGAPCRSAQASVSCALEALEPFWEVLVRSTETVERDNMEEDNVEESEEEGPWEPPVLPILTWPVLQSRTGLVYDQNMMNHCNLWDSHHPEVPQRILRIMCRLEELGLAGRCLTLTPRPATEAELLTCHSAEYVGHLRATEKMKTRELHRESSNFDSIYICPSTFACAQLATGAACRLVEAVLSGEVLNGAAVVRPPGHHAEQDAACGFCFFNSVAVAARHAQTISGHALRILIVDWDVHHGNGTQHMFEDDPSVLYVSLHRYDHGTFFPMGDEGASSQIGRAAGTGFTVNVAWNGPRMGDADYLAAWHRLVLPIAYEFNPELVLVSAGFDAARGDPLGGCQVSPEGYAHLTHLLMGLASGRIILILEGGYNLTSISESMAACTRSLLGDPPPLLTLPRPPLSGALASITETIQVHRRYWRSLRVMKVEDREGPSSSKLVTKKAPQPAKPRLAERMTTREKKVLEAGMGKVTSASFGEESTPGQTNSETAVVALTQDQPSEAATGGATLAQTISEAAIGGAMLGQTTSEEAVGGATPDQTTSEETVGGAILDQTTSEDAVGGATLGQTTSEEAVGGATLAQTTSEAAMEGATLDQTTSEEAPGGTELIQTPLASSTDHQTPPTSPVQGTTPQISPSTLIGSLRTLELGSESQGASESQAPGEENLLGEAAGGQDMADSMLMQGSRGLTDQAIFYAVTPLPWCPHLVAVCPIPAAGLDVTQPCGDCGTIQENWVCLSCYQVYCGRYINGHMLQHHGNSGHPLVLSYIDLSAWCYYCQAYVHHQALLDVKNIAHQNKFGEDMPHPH

[2] = target: T1, Protein deacetylase HDAC6; assay: Binding affinity to N-terminal Avi-tagged/C-terminal His6-tagged HDAC6 zinc-finger ubiquitin binding domain (1109 to 1215 residues)(unknown origin) expressed in Escherichia coli BL21(DE3) after 30 secs by SPR assay
[3] = target: T1, Protein deacetylase HDAC6; assay: Binding affinity to N-terminal His6-tagged HDAC6 zinc-finger ubiquitin binding domain (1109 to 1215 residues)(unknown origin) expressed in Escherichia coli BL21(DE3) by isothermal titration calorimetry

| IC50 [1] | IC50 ([1]; read-out: IC50) | Compound | further results |
| --- | --- | --- | --- |
| Not Active | – | O=C(O)CCc1nc2ccccc2nc1OCc1ccccc1 | – |
| – | 110 µM | O=C(O)CCc1nc2ccccc2nc1OCCOc1ccccn1 | – |
| – | 70 µM | Cn1c(=O)c(CCC(=O)O)nc2ccccc21 | – |
| – | 55 µM | O=C(O)CCc1nc2cc(Cl)ccc2s1 | Kd ([2]; read-out: Kd): 60 µM; Kd ([3]; read-out: Kd): 40 µM |
| – | 140 µM | Cn1ccnc1COc1nc2ccccc2nc1CCC(=O)O | – |
| – | 180 µM | Cc1cccc(OCCOc2nc3ccccc3nc2CCC(=O)O)c1 | – |
| – | 350 µM | O=C(O)CCn1nc(-c2cccnc2)ccc1=O | Kd ([2]; read-out: Kd): 220 µM; Kd ([3]; read-out: Kd): 210 µM |
| Not Active | – | O=C(O)CCc1nc2ccccc2nc1OCc1cccs1 | – |
| – | 270 µM | O=C(O)CCc1nc2ccccc2nc1OCc1ccccn1 | – |
| Not Active | – | CCC(=O)Nc1nc(C)cs1 | Kd [2]: Not Active; Kd [3]: Not Active |
| – | 60 µM | O=C(O)CCc1nc2ccccc2nc1Sc1ccccc1 | – |

| Compound | IC50 [1] | IC50 ([1]; read-out: IC50) | further results |
| --- | --- | --- | --- |
| Cc1n[nH]c(=O)nc1Nc1ccc(C(C)C)cc1 | Not Active | – | Kd [2]: Not Active; Kd [3]: Not Active |
